# Reference: ChEMBL document CHEMBL6109180, “De Novo-Designed APC/C Inhibitors Provide a Rationale for Targeting RING-Type E3 Ubiquitin Ligases” (J Med Chem, 2025)
# Calls of active or inactive are those of the source. No cut-off for these calls is given here. Numbered stars: 1 amine (or outer) side, 2 acyl side, 3 side chain; on linkers, the order of the positions; unused ones are H or OH. Bridge positions count the residues as written; N and C are the ends. Square brackets hold non-standard residues; d marks the D form. Peptide text beside a SMILES is read from it. I, II: the chains in the order shown. X1 = O=C(O)CC[C@@H](C(=O)[*:2])N(CCOCCOCCOCCOCCOCCO[*:3])[*:1]; R8 = C=CCCCCCC[C@@](C)(N)C(=O)O; S5 = C=CCCC[C@](C)(N)C(=O)O; Pra = C#CC[C@H](N)C(=O)O; AEA = NCCOCC(=O)O
# What was measured:
# HeLa [1] = assay: Inhibition of recombinant APC/C/cdc20 (unknown origin) in metaphase-synchronized human HeLa cells co-expressing GST-tagged UBA1/UBE2C/methylated ubiquitin using cyclin B1 as substrate at 100 uM measured after 45 mins in presence of ATP by immuno-precipitation method
# TERT-RPE1 = assay: Effect on time length of mitosis in human RPE-1 cells at 50 uM measured for 10 to 24 hrs by bright field microscopy; format: functional, cell-based; settings: time 10-24 hrs
# HeLa [2] = assay: Inhibition of recombinant APC/C/cdc20 (unknown origin) in metaphase-synchronized human HeLa cells co-expressing GST-tagged UBA1/UBE2S/methylated ubiquitin using cyclin B1 as substrate assessed as decrease in UBE2S-driven chain elongation at 100 uM measured after 45 mins in presence of ATP by immuno-precipitation method; format: cell-based
# HeLa [3] = assay: Inhibition of recombinant APC/C/cdc20 (unknown origin) in metaphase-synchronized human HeLa cells co-expressing GST-tagged UBA1/UBE2C/methylated ubiquitin using RD680-labeled securin as substrate at 25 uM measured after 45 mins in presence of ATP by immuno-precipitation method relative to control
# Homo sapiens = species on record: Homo sapiens; assay: Potency index, ratio of Apcin IC50 to test compound IC50 for inhibition of APC/C (unknown origin)
# [4] = Inhibition of recombinant APC/C/cdc20 (unknown origin) in metaphase-synchronized human HeLa cells co-expressing GST-tagged UBA1/UBE2C/methylated ubiquitin using RD680-labeled securin as substrate measured after 45 mins in presence of ATP by immuno-precipitation method
# HeLa [5] = assay: Inhibition of recombinant APC/C/cdc20 (unknown origin) in metaphase-synchronized human HeLa cells co-expressing GST-tagged UBA1/UBE2D1/methylated ubiquitin using cyclin B1 as substrate at 100 uM measured after 45 mins in presence of ATP by immuno-precipitation method
# [6] = biological target: T1, Ubiquitin-conjugating enzyme E2 C (Homo sapiens) (UniProt O00762); assay: Inhibition of UBE2C (unknown origin) auto-ubiquitination at 100 uM measured after 45 mins in presence of UBA1/His6-ubiquitin/ATP by SDS-PAGE analysis
# T1 sequence (whole entry): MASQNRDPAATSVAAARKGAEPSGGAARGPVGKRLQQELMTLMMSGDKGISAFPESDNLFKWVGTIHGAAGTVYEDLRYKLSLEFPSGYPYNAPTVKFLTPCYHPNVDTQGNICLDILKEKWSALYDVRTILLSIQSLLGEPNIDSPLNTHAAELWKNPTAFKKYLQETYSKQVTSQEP
# [7] = Non-competitve inhibition of recombinant APC/C/cdc20 (unknown origin) in metaphase-synchronized human HeLa cells co-expressing GST-tagged UBA1/UBE2C/methylated ubiquitin using RD680-labeled securin as substrate measured after 45 mins in presence of ATP by immuno-precipitation method; format: cell-based
# HeLa [8] = assay: Inhibition of recombinant APC/C/cdc20 (unknown origin) in metaphase-synchronized human HeLa cells co-expressing GST-tagged UBA1/UBE2C/methylated ubiquitin using RD680-labeled securin as substrate at 100 uM measured after 45 mins in presence of ATP by immuno-precipitation method; format: cell-based
# HeLa [9] = assay: Inhibition of recombinant APC/C/cdc20 (unknown origin) in metaphase-synchronized human HeLa cells co-expressing GST-tagged UBA1/UBE2S/methylated ubiquitin using cyclin B1 as substrate at 100 uM measured after 45 mins in presence of ATP by immuno-precipitation method; format: cell-based
# [10] = biological target: Breast cancer type 1 susceptibility protein (Homo sapiens) (UniProt P38398); assay: Binding affinity to BRCA1 in asynchronously growing human HeLa cells incubated for 30 mins by pull down assay; format: cell-based
# [11] = biological target: E3 ubiquitin-protein ligase Mdm2 (Homo sapiens) (UniProt Q00987); assay: Binding affinity to MDM2 in asynchronously growing human HeLa cells incubated for 30 mins by pull down assay; format: cell-based
# [12] = biological target: E3 ubiquitin-protein ligase RBX1 (Homo sapiens) (UniProt P62877); assay: Binding affinity to RBX1 in asynchronously growing human HeLa cells incubated for 30 mins by pull down assay; format: cell-based
# [13] = biological target: Anaphase-promoting complex subunit 11 (Homo sapiens) (UniProt Q9NYG5); assay: Binding affinity to APC11 in asynchronously growing human HeLa cells incubated for 30 mins by pull down assay; format: cell-based
# [14] = biological target: T2, Polycomb complex protein BMI-1 (Homo sapiens) (UniProt P35226); assay: Binding affinity to BMI1 in asynchronously growing human HeLa cells incubated for 30 mins by pull down assay; format: cell-based
# T2 sequence (whole entry): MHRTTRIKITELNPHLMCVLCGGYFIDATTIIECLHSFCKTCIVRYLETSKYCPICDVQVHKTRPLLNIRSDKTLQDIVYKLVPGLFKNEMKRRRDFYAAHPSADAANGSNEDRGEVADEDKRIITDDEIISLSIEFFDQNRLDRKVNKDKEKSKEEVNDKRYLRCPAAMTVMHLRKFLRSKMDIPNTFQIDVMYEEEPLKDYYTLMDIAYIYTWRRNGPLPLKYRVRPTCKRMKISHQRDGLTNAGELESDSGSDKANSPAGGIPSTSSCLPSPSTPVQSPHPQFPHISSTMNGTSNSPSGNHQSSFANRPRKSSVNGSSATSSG
# [15] = biological target: Baculoviral IAP repeat-containing protein 2 (Homo sapiens) (UniProt Q13490); assay: Binding affinity to c-IAP1 in asynchronously growing human HeLa cells incubated for 30 mins by pull down assay; format: cell-based
# [16] = biological target: E3 ubiquitin-protein ligase CBL (Homo sapiens) (UniProt P22681); assay: Binding affinity to c-CBL in asynchronously growing human HeLa cells incubated for 30 mins by pull down assay; format: cell-based
# [17] = Drug localization in human HeLa cells assessed as punctate pattern formation at 50 uM incubated for 10 hrs by AF488 dye based analysis; format: ADME, cell-based
# [18] = Drug localization in cytoplasm of human HeLa cells at 50 uM incubated for 10 hrs by AF488 dye based analysis; format: ADME, subcellular
# [19] = Drug localization in nucleoplasm of human HeLa cells at 50 uM incubated for 10 hrs by AF488 dye based analysis; format: ADME, subcellular
# HeLa [20] = assay: Induction of mitosis prolongation in human HeLa cells assessed as time taken at 50 uM measured for 10 to 48 hrs by live cell imaging analysis; format: functional; settings: time 10-48 hrs
# HeLa [21] = assay: Binding affinity to APC2 in asynchronous human HeLa cells incubated for 2 hrs by pull down assay; format: cell-based
# [22] = Drug localization in nucleus of human HeLa cells at 50 uM incubated for 4 to 10 hrs by AF488 dye based analysis; format: ADME, subcellular; settings: time 4-10 hrs
# [23] = biological target: Anaphase-promoting complex subunit 11 (Homo sapiens) (UniProt Q9NYG5); assay: Binding affinity to APC11 in asynchronous human HeLa cells incubated for 2 hrs by pull down assay; format: cell-based
# HeLa [24] = assay: Induction of mitotic arrest in human HeLa cells assessed as prolongation in metaphase at 50 uM measured up to 213 mins by time-lapse imaging analysis; format: functional, cell-based
# A549 = assay: Induction of mitotic arrest in human A549 cells assessed as cells in prolongation at 50 uM measured up to 213 mins by time-lapse imaging analysis relative to control; format: functional; settings: 3.55 h
# HeLa [25] = assay: Induction of mitotic arrest in human HeLa cells assessed as cells in prolongation at 50 uM measured up to 213 mins by time-lapse imaging analysis relative to control; format: functional; settings: 3.55 h
# SW480 = assay: Effect on time length of mitosis in human SW480 cells at 50 uM incubated for 10 to 24 hrs by live cell microscopy; format: functional, cell-based; settings: time 10-24 hrs
# HeLa [26] = assay: Induction of mitotic arrest in human HeLa cells assessed as time length at 50 uM measured up to 213 mins by time-lapse imaging analysis; format: functional; settings: 3.55 h
# RKO = assay: Induction of mitotic arrest in human RKO cells assessed as cells in prolongation at 50 uM measured up to 213 mins by time-lapse imaging analysis relative to control; format: functional; settings: 3.55 h
# HT-1080 = assay: Induction of mitotic arrest in human HT-1080 cells assessed as cells in prolongation at 50 uM measured up to 213 mins by time-lapse imaging analysis relative to control; format: functional; settings: 3.55 h
# MDA-MB-231 = assay: Effect on time length of mitosis in human MDA-MB-231 cells at 50 uM incubated for 10 to 24 hrs by live cell microscopy; format: functional, cell-based; settings: time 10-24 hrs
# Chain of Anaphase-promoting complex subunit 11 (Homo sapiens) (Q9NYG5 whole entry, one chain of several): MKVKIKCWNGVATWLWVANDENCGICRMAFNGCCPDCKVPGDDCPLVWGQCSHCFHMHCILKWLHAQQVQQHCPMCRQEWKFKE
# Chain of E3 ubiquitin-protein ligase Mdm2 (Homo sapiens) (Q00987 whole entry, looked up): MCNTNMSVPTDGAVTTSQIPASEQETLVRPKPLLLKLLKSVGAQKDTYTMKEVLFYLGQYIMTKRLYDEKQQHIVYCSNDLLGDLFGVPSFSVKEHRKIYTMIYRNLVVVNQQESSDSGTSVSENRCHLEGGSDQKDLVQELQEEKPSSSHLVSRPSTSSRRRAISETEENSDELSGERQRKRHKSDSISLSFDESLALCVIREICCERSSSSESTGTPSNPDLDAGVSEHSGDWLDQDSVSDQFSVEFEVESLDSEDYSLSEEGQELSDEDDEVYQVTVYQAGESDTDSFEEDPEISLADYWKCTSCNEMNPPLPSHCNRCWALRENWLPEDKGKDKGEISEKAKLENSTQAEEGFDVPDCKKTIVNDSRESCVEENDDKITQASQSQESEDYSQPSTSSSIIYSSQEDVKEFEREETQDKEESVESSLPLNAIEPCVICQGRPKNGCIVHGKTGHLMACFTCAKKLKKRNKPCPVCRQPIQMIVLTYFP
# Chain of E3 ubiquitin-protein ligase RBX1 (Homo sapiens) (P62877 whole entry, looked up): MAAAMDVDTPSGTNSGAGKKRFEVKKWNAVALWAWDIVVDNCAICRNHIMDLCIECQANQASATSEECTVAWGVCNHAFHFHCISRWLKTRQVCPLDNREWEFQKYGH
# Chain of Breast cancer type 1 susceptibility protein (Homo sapiens) (P38398 whole entry, looked up): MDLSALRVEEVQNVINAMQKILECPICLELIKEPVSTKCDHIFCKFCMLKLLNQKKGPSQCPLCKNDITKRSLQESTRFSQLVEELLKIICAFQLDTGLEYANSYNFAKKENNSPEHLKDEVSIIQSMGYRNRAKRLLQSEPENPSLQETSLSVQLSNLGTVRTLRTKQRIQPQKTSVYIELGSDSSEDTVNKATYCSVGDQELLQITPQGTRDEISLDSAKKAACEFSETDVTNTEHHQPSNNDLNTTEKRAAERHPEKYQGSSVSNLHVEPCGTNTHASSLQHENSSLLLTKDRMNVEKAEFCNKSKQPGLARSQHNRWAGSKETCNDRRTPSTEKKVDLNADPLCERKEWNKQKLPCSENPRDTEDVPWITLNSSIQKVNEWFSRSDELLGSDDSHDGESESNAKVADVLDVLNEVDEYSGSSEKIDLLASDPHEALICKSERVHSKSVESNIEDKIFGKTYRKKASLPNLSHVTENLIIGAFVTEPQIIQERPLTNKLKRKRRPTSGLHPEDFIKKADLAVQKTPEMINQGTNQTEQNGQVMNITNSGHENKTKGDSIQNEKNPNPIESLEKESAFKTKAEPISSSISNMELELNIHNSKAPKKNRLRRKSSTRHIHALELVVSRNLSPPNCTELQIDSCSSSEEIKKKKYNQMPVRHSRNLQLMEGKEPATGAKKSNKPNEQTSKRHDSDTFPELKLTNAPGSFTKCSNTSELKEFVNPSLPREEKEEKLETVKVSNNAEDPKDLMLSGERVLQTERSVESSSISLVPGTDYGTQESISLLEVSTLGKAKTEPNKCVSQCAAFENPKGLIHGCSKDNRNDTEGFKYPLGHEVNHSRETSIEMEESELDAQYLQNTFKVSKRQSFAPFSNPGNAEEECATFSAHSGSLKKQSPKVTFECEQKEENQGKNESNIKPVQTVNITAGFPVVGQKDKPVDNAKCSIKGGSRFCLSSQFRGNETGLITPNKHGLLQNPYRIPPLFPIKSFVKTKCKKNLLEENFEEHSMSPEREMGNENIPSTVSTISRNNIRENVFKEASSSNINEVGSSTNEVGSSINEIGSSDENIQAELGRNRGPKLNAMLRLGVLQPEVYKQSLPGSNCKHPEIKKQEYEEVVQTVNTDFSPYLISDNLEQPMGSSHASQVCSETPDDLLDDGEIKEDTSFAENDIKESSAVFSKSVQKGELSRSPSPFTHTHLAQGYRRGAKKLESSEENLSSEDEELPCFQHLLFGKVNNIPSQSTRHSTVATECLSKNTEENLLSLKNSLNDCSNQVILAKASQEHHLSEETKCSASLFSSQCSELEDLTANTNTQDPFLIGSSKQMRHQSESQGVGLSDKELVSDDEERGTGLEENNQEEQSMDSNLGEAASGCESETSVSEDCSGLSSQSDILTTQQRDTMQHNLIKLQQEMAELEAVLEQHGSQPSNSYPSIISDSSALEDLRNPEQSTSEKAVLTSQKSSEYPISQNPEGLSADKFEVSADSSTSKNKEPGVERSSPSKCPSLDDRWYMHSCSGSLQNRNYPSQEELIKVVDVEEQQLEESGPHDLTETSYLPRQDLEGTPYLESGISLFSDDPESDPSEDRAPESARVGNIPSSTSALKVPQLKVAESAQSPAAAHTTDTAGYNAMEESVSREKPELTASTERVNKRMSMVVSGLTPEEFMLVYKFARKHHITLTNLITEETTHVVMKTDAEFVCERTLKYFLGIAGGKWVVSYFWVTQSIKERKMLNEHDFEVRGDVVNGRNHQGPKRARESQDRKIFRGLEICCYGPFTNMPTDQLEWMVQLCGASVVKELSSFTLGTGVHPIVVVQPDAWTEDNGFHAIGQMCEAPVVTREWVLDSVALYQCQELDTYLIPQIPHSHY
# Chain of Baculoviral IAP repeat-containing protein 2 (Homo sapiens) (Q13490 whole entry): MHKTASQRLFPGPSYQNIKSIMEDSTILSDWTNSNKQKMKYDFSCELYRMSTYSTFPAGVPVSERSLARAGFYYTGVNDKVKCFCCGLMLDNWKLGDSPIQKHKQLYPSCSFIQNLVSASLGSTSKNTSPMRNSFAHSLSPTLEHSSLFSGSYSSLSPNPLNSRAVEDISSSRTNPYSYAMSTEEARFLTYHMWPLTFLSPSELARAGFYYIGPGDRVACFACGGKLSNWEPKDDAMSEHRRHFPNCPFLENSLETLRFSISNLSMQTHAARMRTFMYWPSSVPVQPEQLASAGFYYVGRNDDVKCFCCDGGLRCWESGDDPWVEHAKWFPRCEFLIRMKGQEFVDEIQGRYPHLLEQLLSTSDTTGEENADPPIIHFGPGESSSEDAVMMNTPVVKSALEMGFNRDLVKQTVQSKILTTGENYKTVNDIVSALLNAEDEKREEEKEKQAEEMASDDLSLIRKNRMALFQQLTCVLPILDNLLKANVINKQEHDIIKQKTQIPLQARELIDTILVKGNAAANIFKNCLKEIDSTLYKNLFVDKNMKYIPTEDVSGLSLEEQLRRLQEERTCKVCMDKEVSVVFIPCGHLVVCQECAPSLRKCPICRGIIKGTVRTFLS
smiles,measurement,setting,value
CC[C@H](C)[C@@H]1NC(=O)[C@H](CCC(=O)O)NC(=O)[C@H](CCCCN)NC(=O)[C@H]([C@@H](C)CC)NC(=O)[C@](C)(NC(=O)[C@H](Cc2c[nH]c3ccccc23)NC(=O)[C@H](Cc2c[nH]c3ccccc23)NC(=O)[C@H](CCC(=O)O)NC(C)=O)CCCCCC/C=C\CCC[C@@](C)(C(=O)N[C@@H](CCCNC(=N)N)C(=O)N[C@@H](CCCNC(=N)N)C(=O)N[C@@H](C)C(N)=O)NC(=O)[C@H](CCCNC(=N)N)NC(=O)[C@H](CCC(N)=O)NC1=O (Ac-EWW[R8]IKEIQR[S5]RRA-NH2; staple (Z) 4-11),inhibition,HeLa [1],Active
same,Activity,TERT-RPE1,No effect
same,inhibition,HeLa [2],100%
same,inhibition,HeLa [3],> 80%
same,Ratio IC50,Homo sapiens,4.5
same,IC50,[4],1.96 µM
same,inhibition,HeLa [5],Active
same,inhibition,[6],inactive
same,Ki,[7],5.03 µM
same,inhibition,HeLa [8],Active; Compound Exerted Better Inhibitory Effect Than Tame
same,inhibition,HeLa [9],Active
C#CC[C@H](NC(C)=O)C(=O)N[C@@H](CCCNC(=N)N)C(=O)N[C@H]1CSSC[C@@H](C(=O)N[C@@H](CCCNC(=N)N)C(N)=O)NC(=O)[C@H](Cc2c[nH]c3ccccc23)NC(=O)[C@H](Cc2ccccc2)NC(=O)[C@H]([C@@H](C)O)NC(=O)[C@H](CCCNC(=N)N)NC(=O)[C@@H]2CCCN2C(=O)CNC(=O)[C@H](Cc2c[nH]c3ccccc23)NC(=O)[C@H](Cc2cnc[nH]2)NC1=O (Ac-[Pra]RCHWGPRTFWCR-NH2; disulfide 3-12),Activity,[10],inactive
same,Activity,[11],Active
same,Activity,[12],inactive
same,Activity,[13],Active
same,Activity,[14],inactive
same,Activity,[15],inactive
same,Activity,[16],Active
C#CC[C@H](NC(=O)[C@@H]1CCCN1C(=O)[C@H](Cc1c[nH]c2ccccc12)NC(=O)[C@H](CCCNC(=N)N)NC(C)=O)C(=O)N[C@@]1(C)CCC/C=C/CCC[C@@](C)(C(=O)N[C@@H](CCC(N)=O)C(=O)N[C@H](C(=O)N[C@@H](CCCNC(=N)N)C(=O)N[C@@H](CCCNC(=N)N)C(=O)N[C@@H](Cc2c[nH]c3ccccc23)C(N)=O)C(C)C)NC(=O)[C@H](CC(=O)O)NC(=O)[C@H](Cc2c[nH]c3ccccc23)NC(=O)[C@H](CCCCN)NC1=O (Ac-RWP[Pra][S5]KWD[S5]QVRRW-NH2; staple (E) 5-9),Activity,TERT-RPE1,No effect
same,Activity,[11],inactive
same,Activity,[13],Active
same,Activity,[16],inactive
same,Drug uptake,[17],Active
C#CC[C@H](NC(=O)[C@H](Cc1c[nH]c2ccccc12)NC(=O)[C@H](CCC(=O)O)NCCOCCOCCOCCOCCOCCOC(=O)CNC(=O)[C@H](Cc1ccccc1)NC(=O)[C@H](Cc1c[nH]c2ccccc12)NC(=O)[C@H](Cc1ccccc1)NC(=O)CNC(C)=O)C(=O)N[C@]1(C)CCCCCC/C=C\CCC[C@@](C)(C(=O)N[C@@H](CCCNC(=N)N)C(=O)N[C@@H](CCCNC(=N)N)C(=O)N[C@@H](C)C(N)=O)NC(=O)[C@H](CCCNC(=N)N)NC(=O)[C@H](CCC(N)=O)NC(=O)[C@H]([C@@H](C)CC)NC(=O)[C@H](CCC(=O)O)NC(=O)[C@H](CCCCN)NC(=O)[C@H]([C@@H](C)CC)NC1=O (I: H-[X1]W[Pra][R8]IKEIQR[S5]RRA-NH2 / II: Ac-GFWFG; ester I:1-II:C; staple (Z) I:4-I:11),Drug uptake,[18],Active
same,Drug uptake,[19],Active
same,Time,HeLa [20],~74 min
same,Activity,HeLa [21],inactive
same,Drug uptake,[22],Active
same,Activity,[23],inactive
CC[C@H](C)[C@@H]1NC(=O)[C@H](CCC(=O)O)NC(=O)[C@H](CCCCN)NC(=O)[C@H]([C@@H](C)CC)NC(=O)[C@](C)(NC(=O)[C@H](Cc2c[nH]c3ccccc23)NC(=O)[C@H](Cc2c[nH]c3ccccc23)NC(=O)[C@H](CCC(=O)O)NC(=O)COCCNC(=O)CNC(=O)[C@H](Cc2ccccc2)NC(=O)[C@H](Cc2c[nH]c3ccccc23)NC(=O)[C@H](Cc2ccccc2)NC(=O)CNC(C)=O)CCCCCC/C=C\CCC[C@@](C)(C(=O)N[C@@H](CCCNC(=N)N)C(=O)N[C@@H](CCCNC(=N)N)C(=O)N[C@@H](C)C(N)=O)NC(=O)[C@H](CCCNC(=N)N)NC(=O)[C@H](CCC(N)=O)NC1=O (Ac-GFWFG[AEA]EWW[R8]IKEIQR[S5]RRA-NH2; staple (Z) 10-17),Activity,HeLa [24],Active
same,Activity,A549,75%
same,Activity,HeLa [25],75%
same,Activity,SW480,No effect
same,Time,HeLa [26],<=2 hr
same,Activity,RKO,75%
same,Activity,HT-1080,75%
same,Activity,MDA-MB-231,No effect
